Here are results for 29 molecules from ChEMBL document CHEMBL5356956, “Optimizing and characterizing 4-methyl substituted pyrazol-3-carboxamides leading to the peripheral cannabinoid 1 receptor inverse agonist TM38837” (Bioorg Med Chem Lett, 2024).

Values after ≈ are worked out from the molar mass of the structure shown.

The nature of series [1]: Lipophilicity, logD of compound by chromatographic analysis. It counts as physicochemical.
In series [2] the target is T1, Cannabinoid receptor 1 (Homo sapiens, UniProt P21554). In words: Inverse agonist activity at human CB1 receptor expressed in CHO-K1 cell membrane by GTP-gamma-S assay. In kind it is functional, cell membranes.
Series [3] deals with T1, Cannabinoid receptor 1. The series is described as follows: Inverse agonist activity at human CB1 receptor expressed in African green monkey COS7 cells co-expressing G-protein in presence of CP55940 by IP3 assay. It counts as functional, cell membranes, Membrane.
Series [4] is described as follows: Clearance in rat hepatocytes assessed per million cells. It counts as ADME, cell-based, Hepatocyte.
Series [5] is described as follows: Solubility of compound. In kind it is physicochemical.

T1 sequence (P21554 whole entry): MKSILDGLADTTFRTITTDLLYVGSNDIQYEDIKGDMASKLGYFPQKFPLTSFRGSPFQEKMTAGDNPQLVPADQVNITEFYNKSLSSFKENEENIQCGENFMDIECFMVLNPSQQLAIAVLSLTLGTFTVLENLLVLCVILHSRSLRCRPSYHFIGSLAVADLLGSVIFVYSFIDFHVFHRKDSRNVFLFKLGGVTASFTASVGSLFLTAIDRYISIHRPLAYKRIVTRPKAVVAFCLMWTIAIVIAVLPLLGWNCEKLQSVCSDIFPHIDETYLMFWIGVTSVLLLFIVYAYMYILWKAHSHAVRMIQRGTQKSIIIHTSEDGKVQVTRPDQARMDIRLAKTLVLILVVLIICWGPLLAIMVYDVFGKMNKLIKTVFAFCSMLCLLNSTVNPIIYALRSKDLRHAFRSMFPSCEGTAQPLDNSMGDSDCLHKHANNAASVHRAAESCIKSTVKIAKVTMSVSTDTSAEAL

Molecule `O=C(O)Cc1c(C(=O)N2CCC(Oc3cccc(Cl)c3)CC2)nn(-c2ccccc2Cl)c1-c1ccc(Cl)cc1` showed a chromatographic logD in series [1] of 2.8. The IC50 at Cannabinoid receptor 1 [2] is 51 nM; at Cannabinoid receptor 1 [3] it was 10 nM. In series [4], this molecule yielded a CLH of 32 µL/min/1e6 cells.
`O=C(O)Cc1c(C(=O)N2CCC(Oc3ccc(C(F)(F)F)cc3)CC2)nn(-c2ccccc2Cl)c1-c1ccc(Cl)cc1` returned a chromatographic logD in series [1] of 3.1. Further, the IC50 at Cannabinoid receptor 1 [3] came to 7 nM. Besides, the solubility in series [5] came out at 374 µM (≈ 231 µg/mL). Moreover, in series [4], the CLH came to 17 µL/min/1e6 cells.
`CC(C)c1noc(C2(O)CCN(C(=O)c3nn(-c4ccccc4Cl)c(-c4ccc(Cl)cc4)c3CC(N)=O)CC2)n1` yielded a chromatographic logD in series [1] of 3.2. The molecule also came in with an IC50 at Cannabinoid receptor 1 [2] of 0.6 nM. In addition, the concentration in solution in series [5] (solubility) was 4 µM (≈ 2.33 µg/mL). Further, the CLH in series [4] was 65 µL/min/1e6 cells.
Regarding `O=C(O)Cc1c(C(=O)N2CCC(Oc3ccc(Cl)cc3)CC2)nn(-c2ccccc2Cl)c1-c1ccc(Cl)cc1`, the chromatographic logD in series [1] worked out at 2.7. For the same molecule, the IC50 on Cannabinoid receptor 1 [2] is 30 nM; on Cannabinoid receptor 1 [3], 11 nM. This molecule had a CLH in series [4] of 7 µL/min/1e6 cells.
Take `NC(=O)Cc1c(C(=O)N2CCC(O)(c3ccccc3F)CC2)nn(-c2ccccc2Cl)c1-c1ccc(Cl)cc1`: the chromatographic logD in series [1] came to 2.8. On Cannabinoid receptor 1 [2], this molecule gave an IC50 of 0.5 nM. In series [5], this molecule displayed a solubility of 66 µM (≈ 37.5 µg/mL).
`O=C(c1nn(-c2ccccc2Cl)c(-c2ccc(Cl)cc2)c1Cc1nn[nH]n1)N1CCC(Oc2ccc(F)cc2)CC1` had a chromatographic logD in series [1] of 2.4. The IC50 at Cannabinoid receptor 1 [2] was found to be 170 nM; at Cannabinoid receptor 1 [3], 41 nM. Moreover, in series [5], the concentration in solution (solubility) came to 500 µM (≈ 296 µg/mL). The CLH in series [4] was 13 µL/min/1e6 cells.
As for `N#Cc1ccc(C2(O)CCN(C(=O)c3nn(-c4ccccc4Cl)c(-c4ccc(Cl)cc4)c3CC(N)=O)CC2)cc1`, the chromatographic logD in series [1] was 2.5. On Cannabinoid receptor 1 [2], this molecule had an IC50 of 0.7 nM. The same molecule gave a solubility in series [5] of 73 µM (≈ 41.9 µg/mL).
For `NC(=O)Cc1c(C(=O)N2CCC(O)(c3cccc(F)c3)CC2)nn(-c2ccccc2Cl)c1-c1ccc(Cl)cc1`, the chromatographic logD in series [1] was 2.8. This molecule registered an IC50 at Cannabinoid receptor 1 [2] of 0.5 nM. For the same molecule, the solubility in series [5] turned out to be 62 µM (≈ 35.2 µg/mL). The molecule also came in with a CLH in series [4] of 16 µL/min/1e6 cells.
Regarding `N#Cc1ccc(CNC(=O)c2nn(-c3ccccc3Cl)c(-c3ccc(Cl)cc3)c2CC(N)=O)cc1`, in series [1], the chromatographic logD stood at 2.9. This molecule displayed an IC50 on Cannabinoid receptor 1 [2] of 0.3 nM. In addition, in series [5], the concentration in solution (solubility) came to 16 µM (≈ 8.07 µg/mL).
In turn, `C[C@@H](NC(=O)c1nn(-c2ccccc2Cl)c(-c2ccc(Cl)cc2)c1Cc1nn[nH]n1)c1ccc(Br)cc1` registered a chromatographic logD in series [1] of 2.4. Further, on Cannabinoid receptor 1 [3], the IC50 amounted to 72 nM.
Turning to `N#Cc1cccc(OC2CCN(C(=O)c3nn(-c4ccccc4Cl)c(-c4ccc(Cl)cc4)c3CC(=O)O)CC2)c1`, the chromatographic logD in series [1] was 3.3. Also, the IC50 on Cannabinoid receptor 1 [3] is 53 nM. This molecule yielded a solubility in series [5] of 107 µM (≈ 61.6 µg/mL). In series [4], this molecule gave a CLH of 26 µL/min/1e6 cells.
In series [1], `CS(=O)(=O)N1CCC(NC(=O)c2nn(-c3ccccc3Cl)c(-c3ccc(Cl)cc3)c2CC(N)=O)CC1` registered a chromatographic logD of 2.4. Further, at Cannabinoid receptor 1 [2], the IC50 is 9.5 nM. This molecule also displayed a solubility in series [5] of 61 µM (≈ 33.6 µg/mL). Also, the CLH in series [4] was determined as 8 µL/min/1e6 cells.
For `O=C(O)Cc1c(C(=O)N2CCC(Oc3ccc(F)cc3)CC2)nn(-c2ccccc2Cl)c1-c1ccc(Cl)cc1`, the chromatographic logD in series [1] worked out at 3.6. In addition, the IC50 at Cannabinoid receptor 1 [3] turned out to be 6 nM. Further, the solubility in series [5] is 118 µM (≈ 67.1 µg/mL).
Molecule `C[C@@H]1CC(O)(c2ccccc2F)C[C@H](C)N1C(=O)c1nn(-c2ccccc2Cl)c(-c2ccc(Cl)cc2)c1CC(N)=O` (stereo partly drawn) had a chromatographic logD in series [1] of 3.6. The molecule further returned an IC50 at Cannabinoid receptor 1 [2] of 0.7 nM. For the same molecule, the concentration in solution in series [5] (solubility) came to 29 µM (≈ 17.3 µg/mL).
Regarding `O=C(O)Cc1c(C(=O)N2CCC(Oc3cccc(C(F)(F)F)c3)CC2)nn(-c2ccccc2Cl)c1-c1ccc(Cl)cc1`, the chromatographic logD in series [1] stood at 2.7. Further, the IC50 on Cannabinoid receptor 1 [3] was 24 nM. The molecule also displayed a solubility in series [5] of 500 µM (≈ 309 µg/mL). The CLH in series [4] worked out at 35 µL/min/1e6 cells.
`O=C(c1nn(-c2ccccc2Cl)c(-c2ccc(Cl)cc2)c1Cc1nn[nH]n1)N1CCC(Oc2cccc(F)c2F)CC1`: in series [1], the chromatographic logD was determined as 2.5. In addition, the IC50 at Cannabinoid receptor 1 [2] came out at 110 nM; at Cannabinoid receptor 1 [3], 61 nM. The molecule also came in with a solubility in series [5] of 396 µM (≈ 242 µg/mL). Moreover, the CLH in series [4] stood at 14 µL/min/1e6 cells.
The molecule `O=C(O)Cc1c(C(=O)N2CCC(Oc3cc(F)cc(F)c3)CC2)nn(-c2ccccc2Cl)c1-c1ccc(Cl)cc1` showed a chromatographic logD in series [1] of 3.2. In addition, the IC50 at Cannabinoid receptor 1 [3] amounted to 8 nM. In series [5], this molecule displayed a solubility of 171 µM (≈ 100 µg/mL).
Turning to `N=C(Cc1c(C(=O)NN2CCCCC2)nn(-c2ccccc2Cl)c1-c1ccc(Cl)cc1)NO`, the chromatographic logD in series [1] turned out to be 2.9.
In series [1], `C[C@@H]1C[C@](O)(c2cccc(F)c2)CCN1C(=O)c1nn(-c2ccccc2Cl)c(-c2ccc(Cl)cc2)c1CC(N)=O` returned a chromatographic logD of 3. This molecule yielded an IC50 at Cannabinoid receptor 1 [2] of 0.4 nM. Also, the concentration in solution in series [5] (solubility) was 64 µM (≈ 37.2 µg/mL). In series [4], this molecule had a CLH of 24 µL/min/1e6 cells.
On the same counts, the results for `C[C@@H](NC(=O)c1nn(-c2ccccc2Cl)c(-c2ccc(Cl)cc2)c1CC(N)=O)c1ccc(C(F)(F)F)nc1` are 3.3, 0.4 nM, 21 µM (≈ 11.8 µg/mL) and 6 µL/min/1e6 cells.
`NC(=O)Cc1c(C(=O)N2CCC(Oc3cccc(F)c3)CC2)nn(-c2ccccc2Cl)c1-c1ccc(Cl)cc1` returned a chromatographic logD in series [1] of 3.7. Also, on Cannabinoid receptor 1 [2], the IC50 came to 0.3 nM. Moreover, the solubility in series [5] is 9 µM (≈ 5.11 µg/mL). Besides, in series [4], the CLH was determined as 48 µL/min/1e6 cells.
Take `CC(=O)N1CCC(NC(=O)c2nn(-c3ccccc3Cl)c(-c3ccc(Cl)cc3)c2CC(N)=O)CC1`: in series [1], the chromatographic logD worked out at 1.8. Moreover, the IC50 on Cannabinoid receptor 1 [2] was 11 nM. Moreover, the solubility in series [5] is 51 µM (≈ 26.2 µg/mL). Further, in series [4], the CLH was 4 µL/min/1e6 cells.
`N#Cc1cccc(C2(O)CCN(C(=O)c3nn(-c4ccccc4Cl)c(-c4ccc(Cl)cc4)c3CC(N)=O)CC2)c1` gave a chromatographic logD in series [1] of 2.6. The molecule also gave an IC50 on Cannabinoid receptor 1 [2] of 0.4 nM. In series [5], the concentration in solution (solubility) came to 70 µM (≈ 40.2 µg/mL).
`CC(C)S(=O)(=O)N1CCC(NC(=O)c2nn(-c3ccccc3Cl)c(-c3ccc(Cl)cc3)c2CC(N)=O)CC1` returned a chromatographic logD in series [1] of 2.8. The molecule further returned an IC50 on Cannabinoid receptor 1 [2] of 1.9 nM. The molecule also showed a solubility in series [5] of 33 µM (≈ 19.1 µg/mL). In series [4], the CLH came to 17 µL/min/1e6 cells.
Molecule `O=C(O)Cc1c(C(=O)N2CCC(Oc3ccc(OC(F)(F)F)cc3)CC2)nn(-c2ccccc2Cl)c1-c1ccc(Cl)cc1` came in with a chromatographic logD in series [1] of 3.2. Moreover, the IC50 at Cannabinoid receptor 1 [3] is 10 nM. For the same molecule, the solubility in series [5] worked out at 176 µM (≈ 112 µg/mL).
For the molecule `C[C@@H]1CC(O)(c2cccc(F)c2)C[C@H](C)N1C(=O)c1nn(-c2ccccc2Cl)c(-c2ccc(Cl)cc2)c1CC(N)=O` (stereo partly drawn), in series [1], the chromatographic logD was 3.5. The molecule also came in with an IC50 on Cannabinoid receptor 1 [2] of 2.2 nM. Further, in series [5], the concentration in solution (solubility) was 79 µM (≈ 47 µg/mL).
`O=C(O)Cc1c(C(=O)N2CCC(Oc3ccc(Cl)cc3F)CC2)nn(-c2ccccc2Cl)c1-c1ccc(Cl)cc1` showed a chromatographic logD in series [1] of 3.4. Moreover, on Cannabinoid receptor 1 [3], the IC50 was determined as 8 nM. In addition, the solubility in series [5] was 83 µM (≈ 50 µg/mL). This molecule displayed a CLH in series [4] of 28 µL/min/1e6 cells.
`O=C(O)Cc1c(C(=O)N2CCC(Oc3cccc(F)c3F)CC2)nn(-c2ccccc2Cl)c1-c1ccc(Cl)cc1` yielded a chromatographic logD in series [1] of 2.5. For the same molecule, the IC50 on Cannabinoid receptor 1 [3] was determined as 15 nM. The molecule further showed a solubility in series [5] of 500 µM (≈ 293 µg/mL).
`CCN1C(=O)OC2(CCN(C(=O)c3nn(-c4ccccc4Cl)c(-c4ccc(Cl)cc4)c3CC(N)=O)CC2)C1=O`: in series [1], the chromatographic logD came to 2.7. For the same molecule, on Cannabinoid receptor 1 [2], the IC50 came to 1.3 nM. The molecule also showed a solubility in series [5] of 28 µM (≈ 16 µg/mL). In series [4], this molecule had a CLH of 21 µL/min/1e6 cells.

Broadly, the chromatographic logD is a lipophilicity value derived from retention on a column. A word on the IC50: it is the concentration needed to halve the response being measured. As usually defined, the solubility is the concentration that dissolves in the medium under given conditions.
